{"source": "patent US10233202B2", "about": "“Tenofovir monobenzyl ester phosphamide prodrug, preparation method and use thereof” (JIANGSU TASLY DIYI PHARMACEUTICAL CO., LTD., priority 2015, dated 2019)", "key": {"[1]": {"experiment": "Stability in the simulated gastric fluid", "format": "in vitro ADME", "details": "10 μM", "description": "(§1) The following stability test were carried out according to the prior art, and the data of the stability test shown in the table were the residue percentages after the test compounds were incubated for different period of time under the test condition."}, "[2]": {"tested_on": "HIV-1 IIIB", "experiment": "In vitro anti-HIV activity test in MT-4 cells infected with HIV-1 IIIB (CellTiter Glo)", "format": "cell-based", "details": "Human immunodeficiency virus 1, MT4, 120 h; MT-4 cells infected with HIV-1 IIIB, 5 days; read-out: EC50", "description": "9.1. Dilution and concentrations of the compounds and the reference compound (CN01813161GS-7340, TDF) were the same as those in example 1.\n9.2. In vitro anti-HIV activity test: after MT-4 cells were infected with 24 TCID50HIV-1 IIIB/1×10^5 cells (2.4 TCID50/well) at 37° C. for 1 hour, they were plated in the 96-well plate containing the compounds of different concentrations ([…]) and cultured at 37° C. in 5% CO2 for 5 days. CellTiter Glo was used to determine the activity to calculate the EC50 value.\n(§2) 9.4. Data analysis and calculation of the inhibition percentage: the activity percentage was calculated using the following formula: Activity (%) =(Raw datacpd−AverageVC)/(AverageCC−AverageVC)*100Cell Viability (%)=Raw datacpd/AverageCC*100"}, "[3]": {"experiment": "Stability in the simulated intestinal fluid", "format": "in vitro ADME", "details": "10 μM", "description": "as §1"}, "[4]": {"experiment": "Stability in the human liver S9", "format": "in vitro ADME", "details": "human liver S9, 1 μM", "description": "as §1"}, "[5]": {"tested_on": "HBV", "experiment": "Cell based anti-HBV activity test, HBV DNA in HepG2.2.15 cell supernatant by qPCR", "details": "Hepatitis B virus, HepG2.2.15, HepG2.2.15 cells, read-out: EC50", "description": "(§3) 8.1. Dilution of the compounds: the initial concentration of each compound in the in vitro anti-HBV activity test was 1 μM, with 3-fold serial dilution to 8 concentrations; the initial concentration of each compound in the cytotoxicity test was 100 μM, with 3-fold serial dilution to 8 concentrations; DMSO was used for the dilution of the compound mother liquor. The initial concentrations of the reference compound TDF for the anti-HBV activity test in vitro and the cytotoxicity test were all set at 0.2 μM, with 3-fold serial dilution to 8 concentrations.\n8.2. Anti-HBV activity test in vitro: the HepG2.2.15 cells were plated in the 96-well plate (4×10^4 cells/well), and cultured overnight at 37° C. in 5% CO2. On second day, fresh culture solutions containing compounds of different concentrations were added to the culture wells. See Table 2 for the compound distribution. On 5th day, the used culture solutions in the culture wells were sucked and discarded, and fresh culture solutions containing compounds of different concentrations were added. On 8th day, the supernatant in the culture wells was collected for the extraction of HBV DNA in the supernatant. qPCR test was used to detect the concentration of HBV DNA content in the HepG2.2.15 supernatant.\n8.4. Data analysis and calculation of the inhibition percentage and relative cell viability: The inhibition percentage was calculated using the following formula: % Inh.=[(HBV quantity of DMSO control−HBV quantity of sample)/HBV quantity of DMSO control]×100%\n9.1 Drugs: the dilution method and concentrations of compound 3, the reference compound (CN201380030061.6, and the compound shown in claim 36 (abbreviation: compound 7), and the isomer thereof) were the same as those in example 1.\n(§4) 9.2 Test method: the test was carried out according to the procedure in example 1."}, "[6]": {"experiment": "Stability in the human blood", "format": "in vitro ADME", "details": "2 μM", "description": "as §1"}, "[7]": {"experiment": "Cell viability test in MT-4 cells (CellTiter Glo)", "format": "cell-based", "details": "human", "description": "9.3. Treatment of the cells in the cell viability test: parallel tests were carried out using the same method as that in 9.2, except that the 96-well plate containing the compounds of different concentrations were replaced with the blank 96-well plate, and CellTiter Glo was used to determine the cell viability to calculate the CC50 value.\nas §2"}, "[8]": {"molecular_target": "hERG K-channel (Homo sapiens, UniProt Q12809)", "sequence (Q12809 whole entry)": "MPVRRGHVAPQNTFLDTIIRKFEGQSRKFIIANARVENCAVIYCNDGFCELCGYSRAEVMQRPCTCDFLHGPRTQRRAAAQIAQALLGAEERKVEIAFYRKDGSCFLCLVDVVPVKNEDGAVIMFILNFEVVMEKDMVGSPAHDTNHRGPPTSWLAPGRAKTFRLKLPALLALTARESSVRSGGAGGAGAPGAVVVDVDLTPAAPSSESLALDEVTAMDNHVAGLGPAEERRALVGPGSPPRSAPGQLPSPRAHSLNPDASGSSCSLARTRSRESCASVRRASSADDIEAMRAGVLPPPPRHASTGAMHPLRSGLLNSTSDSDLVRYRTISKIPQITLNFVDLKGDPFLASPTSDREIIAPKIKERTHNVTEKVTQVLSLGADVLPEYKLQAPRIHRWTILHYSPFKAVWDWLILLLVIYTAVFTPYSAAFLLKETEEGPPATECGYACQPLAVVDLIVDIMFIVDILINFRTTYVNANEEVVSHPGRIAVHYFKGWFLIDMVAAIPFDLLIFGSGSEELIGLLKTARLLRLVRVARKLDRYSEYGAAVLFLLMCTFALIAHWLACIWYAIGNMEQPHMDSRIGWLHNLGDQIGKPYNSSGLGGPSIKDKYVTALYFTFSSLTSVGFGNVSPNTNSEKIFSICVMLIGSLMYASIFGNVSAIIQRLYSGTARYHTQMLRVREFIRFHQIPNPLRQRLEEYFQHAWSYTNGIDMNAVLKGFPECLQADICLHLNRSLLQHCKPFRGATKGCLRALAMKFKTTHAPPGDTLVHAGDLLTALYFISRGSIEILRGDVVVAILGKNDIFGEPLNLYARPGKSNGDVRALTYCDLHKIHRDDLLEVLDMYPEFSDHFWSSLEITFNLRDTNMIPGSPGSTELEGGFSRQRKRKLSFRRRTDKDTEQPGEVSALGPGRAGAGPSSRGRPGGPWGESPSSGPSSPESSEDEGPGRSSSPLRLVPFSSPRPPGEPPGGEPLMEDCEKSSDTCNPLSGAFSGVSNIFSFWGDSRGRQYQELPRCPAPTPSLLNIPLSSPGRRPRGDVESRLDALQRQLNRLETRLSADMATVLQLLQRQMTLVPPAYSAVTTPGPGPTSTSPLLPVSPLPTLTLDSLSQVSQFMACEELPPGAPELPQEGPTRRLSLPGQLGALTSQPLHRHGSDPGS", "experiment": "hERG manual whole-cell patch clamp in CHO cells (cardiotoxicity study)", "details": "IC50, hERG current, room temperature", "description": "The CHO cells obtained from AVivaBiosciences that could stably express the hERG K-channel were used in the test, and the cells were incubated at 37° C. in 5% CO2 and under constant humidity.\nThe final concentration of DMSO in the extracellular fluid was not higher than 0.30%.\nThe whole-cell patch clamp technique was used on the Multiclamp patch-clamp amplifier to test the compound at room temperature, the output signal was digitalized using the DIgiDAta 1440 A/D-D/A plate, and the Pclamp10 software was used for the control of the recording. The minimum sealing resistance was set at 500 MOh/ms, and the minimum specific hERG current was set at 0.4 nA for quality control.\nClampfit (V10.2, Molecular Devices), Excel 2003 and GraphPad Prism 5.0 were used for the data analysis. The calculation formula of the current: I/Icontrol=Bottom+(Top−Bottom)/(1+10^((LogIC50−Log C)*Hillslope"}, "[9]": {"tested_on": "HepG2.2.15 cells", "experiment": "in vitro", "format": "cell-based", "details": "comparative test, Table 4", "description": "(§5) The concentration of HBV DNA in the HepG2.2.15 cell supernatant was detected through the real-time fluorescence quantitative PCR (qPCR) method to determine the anti-HBV activity of the compound in the HepG2.2.15 cells, and the effect of the testing compounds to the HepG2.2.15 cell activity was detected through Cell-titer Blue.\nas §3\n(§6) 8.3. Treatment of the cells in the cell viability test: the HepG2.2.15 cells were plated in the 96-well plate (4×10^4 cells/well), and cultured overnight at 37° C. in 5% CO2. On 2nd day, fresh culture solutions containing compounds of different concentrations were added to the culture wells. See Table 3 for the compound distribution. On 5th day, the used culture solutions in the culture wells were sucked and discarded, and fresh culture solutions containing compounds of different concentrations were added. On 8th day, Cell-titer Blue agent was added to each well, and the microplate reader was used to detect the fluorescence value of each well.\n(§7) The cell viability percentage was calculated using the following formula: % cell viability=(fluorescence of sample−fluorescence of medium control)/(fluorescence of DMSO control−fluorescence of medium control)[…] 100%\nas §4"}, "[10]": {"experiment": "in vitro", "format": "cell-based", "details": "human; HepG2.2.15 cells, Cell-titer Blue on 8th day; Table 3", "description": "as §5, §3, §6, §7, §4"}}, "note": "Where two headings read alike, the source gives them in different places.", "data": [{"molecule": "CC(C)OC(=O)[C@H](C)N[P@](=O)(CO[C@H](C)Cn1cnc2c(N)ncnc21)OCc1ccccc1", "note": "(single isomer, unassigned) [Compound 3b]", "values": [{"measurement": "% 0 min (residue percentage)", "setting": "[1]; 0 min", "value": 100, "unit": "%"}, {"measurement": "% 60 min (residue percentage)", "setting": "[1]; 60 min", "value": 84.26, "unit": "%"}, {"measurement": "% 120 min (residue percentage)", "setting": "[1]; 120 min", "value": 58.54, "unit": "%"}, {"measurement": "% 360 min (residue percentage)", "setting": "[1]; 360 min", "value": 17.28, "unit": "%"}, {"measurement": "% 1440 min (residue percentage)", "setting": "[1]; 1440 min", "value": 0.00, "unit": "%"}, {"measurement": "EC50", "setting": "[2]", "value": 0.00986, "unit": "µM"}, {"measurement": "% 0 min (residue percentage)", "setting": "[3]; 0 min", "value": 100, "unit": "%"}, {"measurement": "% 60 min (residue percentage)", "setting": "[3]; 60 min", "value": 51.07, "unit": "%"}, {"measurement": "% 120 min (residue percentage)", "setting": "[3]; 120 min", "value": 20.20, "unit": "%"}, {"measurement": "% 360 min (residue percentage)", "setting": "[3]; 360 min", "value": 0.23, "unit": "%"}, {"measurement": "% 1440 min (residue percentage)", "setting": "[3]; 1440 min", "value": 0.00, "unit": "%"}, {"measurement": "CLlint(s9)", "setting": "[4]", "value": 68.6, "unit": "µL/min/mg"}, {"measurement": "half-life at 1 μM", "setting": "[4]", "value": 10.1, "unit": "min"}, {"measurement": "Remaining (T = 60 min)", "setting": "[4]; 60 min", "value": 9, "unit": "%"}, {"measurement": "CLlint(s9)", "setting": "[4]; scaled per kg", "value": 0.2415, "unit": "mL/min/kg"}, {"measurement": "EC50", "setting": "[5]; HBV DNA in supernatant on 8th day, Table 3", "value": "< 0.01", "unit": "µM"}, {"measurement": "EC50", "setting": "[5]; comparative test, Table 4", "value": 0.006, "unit": "µM"}, {"measurement": "% 0 min (residue percentage)", "setting": "[6]; 0 min", "value": 100, "unit": "%"}, {"measurement": "% 10 min (residue percentage)", "setting": "[6]; 10 min", "value": 97.1, "unit": "%"}, {"measurement": "% 30 min (residue percentage)", "setting": "[6]; 30 min", "value": 96.4, "unit": "%"}, {"measurement": "% 60 min (residue percentage)", "setting": "[6]; 60 min", "value": 96.1, "unit": "%"}, {"measurement": "% 120 min (residue percentage)", "setting": "[6]; 120 min", "value": 93.7, "unit": "%"}, {"measurement": "CC50 at 5 days", "setting": "[7]", "value": 16.9, "unit": "µM"}, {"measurement": "IC50", "setting": "[8]", "value": "> 30", "unit": "µM"}, {"measurement": "CC50", "setting": "[9]", "value": "> 100", "unit": "µM"}, {"measurement": "CC50", "setting": "[10]", "value": "> 100", "unit": "µM"}]}]}
